Laboratory results published in ChEMBL document CHEMBL4382235, “Design, synthesis and biological evaluation of novel 1-phenyl phenanthridin-6(5H)-one derivatives as anti-tumor agents targeting TOPK” (Eur J Med Chem, 2019).
Blank lines part the entries; values can stand above or below the compound they belong to.

Columns and labels:
[1] = test system: HCT-15; test: cells; details: Homo sapiens, HCT-15, 72 h
Description: Antiproliferative activity against human HCT15 cells after 72 hrs by MTT assay

[2] = test system: A549; test: cells; details: Homo sapiens, A549, 72 h
Description: Antiproliferative activity against human A549 cells after 72 hrs by MTT assay

[3] = test system: HCT-116; test: cells; details: Homo sapiens, HCT-116, 72 h
Description: Antiproliferative activity against human HCT116 cells after 72 hrs by MTT assay

[4] = test system: HCT-116; test: animal or person; details: Mus musculus, HCT-116, po, read-out: TGI
[5] = AUC (0 to 24 hrs) in Sprague-Dawley rat at 15 mg/kg, po by LC-MS/MS analysis; type: ADME, organism-based; parameters: dose 15 mg/kg, time < 24 hr, route oral; details: in vivo
[6] = test system: HCT-116; test: animal or person; details: Mus musculus, HCT-116, po, read-out: TGI; remark: listed apart in the source
[7] = test system: SW-620; test: animal or person; details: Mus musculus, SW-620, po, read-out: TGI
[8] = Toxicity in nude mouse xenografted with human HCT116 cells assessed as body weight loss at 10 to 15 mg/kg, qd administered via gavage for 3 weeks; type: organism-based; details: in vivo, po, 504 h
[9] = Clearance in Sprague-Dawley rat at 2 mg/kg, iv by LC-MS/MS analysis; type: ADME, organism-based; details: in vivo
[10] = Tmax in Sprague-Dawley rat at 2 mg/kg, iv by LC-MS/MS analysis; type: ADME, organism-based; details: in vivo
[11] = Volume of distribution at steady state in Sprague-Dawley rat at 2 mg/kg, iv by LC-MS/MS analysis; type: ADME, organism-based; details: in vivo
[12] = Cmax in Sprague-Dawley rat at 2 mg/kg, iv by LC-MS/MS analysis; type: ADME, organism-based; parameters: dose 2 mg/kg, route intravenous; details: in vivo
[13] = Oral bioavailability in Sprague-Dawley rat at 15 mg/kg by LC-MS/MS analysis; type: ADME, organism-based; details: in vivo
[14] = Toxicity in nude mouse xenografted with human HCT15 cells assessed as body weight loss at 10 to 15 mg/kg, qd administered via gavage for 3 weeks; type: organism-based; details: in vivo, po, 504 h
[15] = Half life in Sprague-Dawley rat at 2 mg/kg, iv by LC-MS/MS analysis; type: ADME, organism-based; details: in vivo
[16] = test system: HCT-15; test: animal or person; details: Mus musculus, HCT-15, po, read-out: TGI
[17] = test system: HCT-15; test: animal or person; details: Mus musculus, HCT-15, po, read-out: TGI; remark: listed apart in the source
[18] = MRT (0 to t) in Sprague-Dawley rat at 2 mg/kg, iv by LC-MS/MS analysis; type: ADME, organism-based; details: in vivo
[19] = Cmax in Sprague-Dawley rat at 15 mg/kg, po by LC-MS/MS analysis; type: ADME, organism-based; parameters: dose 15 mg/kg, route oral; details: in vivo
[20] = Tmax in Sprague-Dawley rat at 15 mg/kg, po by LC-MS/MS analysis; type: ADME, organism-based; details: in vivo
[21] = Toxicity in nude mouse xenografted with human SW620 cells assessed as body weight loss at 10 to 15 mg/kg, qd administered via gavage for 3 weeks; type: organism-based; details: in vivo, po, 504 h
[22] = AUC (0 to t) in Sprague-Dawley rat at 2 mg/kg, iv by LC-MS/MS analysis; type: ADME, organism-based; details: in vivo
[23] = test system: SW-620; test: animal or person; details: Mus musculus, SW-620, po, read-out: TGI; remark: listed apart in the source
[24] = MRT (0 to t) in Sprague-Dawley rat at 15 mg/kg, po by LC-MS/MS analysis; type: ADME, organism-based; details: in vivo

- IC50 [1]: 257 nM
- IC50 [2]: 360 nM
- IC50 [3]: 468 nM
Compound: Cc1cc(O)c(-c2ccc([C@@H](C)N)cc2)c2c1[nH]c(=O)c1sccc12

- IC50 [1]: 365 nM
- IC50 [2]: 78.7 nM
- IC50 [3]: 114 nM
Compound: Cc1cc(O)c(-c2ccc([C@@H](C)CN)cc2)c2c1[nH]c(=O)c1ccccc12

- IC50 [1]: 327 nM
- IC50 [2]: 60.3 nM
- IC50 [3]: 156 nM
Compound: Cc1ccc2c(=O)[nH]c3c(C)cc(O)c(-c4ccc([C@@H](C)CN)cc4)c3c2c1

- IC50 [1]: 217 nM
- IC50 [2]: 120 nM
- IC50 [3]: 385 nM
Compound: Cc1ccc2c(=O)[nH]c3c(C)cc(O)c(-c4ccc([C@@H](C)N)cc4)c3c2c1

- IC50 [1]: 467 nM
- IC50 [2]: 317 nM
- IC50 [3]: 274 nM
Compound: Cc1ccc2c(=O)[nH]c3c(C)cc(O)c(-c4ccc([C@@H](C)N(C)C)cc4)c3c2c1

- IC50 [1]: 301 nM
- IC50 [2]: 25.9 nM
- IC50 [3]: 75.8 nM
Compound: Cc1cc(O)c(-c2ccc([C@@H](C)CN)cc2)c2c1[nH]c(=O)c1c(C)cccc12

- IC50 [2]: > 1000 nM
- IC50 [3]: 571 nM
Compound: Cc1ccc2c(c1)c(=O)[nH]c1c(C)cc(O)c(-c3ccc([C@@H](C)N)cc3)c12

- IC50 [1]: 501 nM
- IC50 [2]: 466 nM
- IC50 [3]: 385 nM
Compound: Cc1ccc2c(=O)[nH]c3c(C)cc(O)c(-c4ccc([C@@H](C)CN(C)C)cc4)c3c2c1

- IC50 [1]: 96.7 nM
- IC50 [2]: 82.5 nM
- IC50 [3]: 102 nM
Compound: Cc1cc(O)c(-c2ccc([C@@H](C)N)cc2)c2c1[nH]c(=O)c1c(O)cccc12

- IC50 [1]: > 1000 nM
- IC50 [2]: 920 nM
- IC50 [3]: > 1000 nM
Compound: Cc1cc(O)c(-c2ccc([C@@H](C)N)cc2)c2c1[nH]c(=O)c1ccccc12

- IC50 [1]: 505 nM
- IC50 [2]: 187 nM
- IC50 [3]: 242 nM
Compound: Cc1cc(O)c(-c2ccc([C@@H](C)N)cc2)c2c1[nH]c(=O)c1c(C)cccc12

- IC50 [2]: > 1000 nM
- IC50 [3]: > 1000 nM
Compound: Cc1ccc2c(c1)c(=O)[nH]c1c(C)cc(O)c(-c3ccc([C@@H](C)N(C)C)cc3)c12

- IC50 [2]: > 1000 nM
- IC50 [3]: 830 nM
Compound: Cc1ccc2c(c1)c(=O)[nH]c1c(C)cc(O)c(-c3ccc([C@@H](C)CN(C)C)cc3)c12

- IC50 [2]: > 1000 nM
- IC50 [3]: 962 nM
Compound: Cc1ccc2c(c1)c(=O)[nH]c1c(C)cc(O)c(-c3ccc([C@@H](C)CN)cc3)c12

Second part, the compound before the results:

Compound: Cc1cc(O)c(-c2ccc([C@@H](C)CN(C)C)cc2)c2c1[nH]c(=O)c1sccc12
- IC50 [1]: 73.1 nM
- IC50 [2]: 20.4 nM
- inhibition in vivo at 15 mg/kg [4]: 49.4%
- IC50 [3]: 45 nM

Compound: Cc1cc(O)c(-c2ccc([C@@H](C)CN)cc2)c2c1[nH]c(=O)c1c(O)cccc12
- AUC(0-t) at 24 h [5]: 4230 ng·h/mL
- IC50 [1]: 31.4 nM
- inhibition in vivo at 10 mg/kg [6]: 53.7%
- inhibition in vivo at 15 mg/kg [7]: 79.7%
- Activity [8]: Non-Toxic
- CL [9]: 33.9532 mL/min/kg
- Tmax [10]: 4.8 min
- Vdss [11]: 20.25 L/kg
- Cmax [12]: 188 ng/mL
- bioavailability [13]: 100%
- IC50 [2]: 5.41 nM
- Activity [14]: Non-Toxic
- half-life [15]: 7.02 h
- inhibition in vivo at 15 mg/kg [16]: 78.8%
- inhibition in vivo at 10 mg/kg [17]: 42.1%
- MRT(t) [18]: 3.24 h
- inhibition in vivo at 15 mg/kg [4]: 75.8%
- Cmax [19]: 251 ng/mL
- Tmax [20]: 6.67 h
- Activity [21]: Non-Toxic
- AUC(0-t) [22]: 564 ng·h/mL
- IC50 [3]: 7.87 nM
- inhibition in vivo at 10 mg/kg [23]: 72.1%
- MRT last [24]: 10.5 h

Compound: C[C@H](c1ccc(-c2c(O)cc(Cl)c3[nH]c(=O)c4ccccc4c23)cc1)N(C)C
- IC50 [1]: > 1000 nM
- IC50 [2]: > 1000 nM
- IC50 [3]: > 1000 nM

Compound: NCC1(c2ccc(-c3c(O)cc(Cl)c4[nH]c(=O)c5c(O)cccc5c34)cc2)CC1
- IC50 [2]: 437 nM
- IC50 [3]: 564 nM

Compound: COc1cc(C)c2[nH]c(=O)c3ccccc3c2c1-c1ccc(C2(CN)CC2)cc1
- IC50 [2]: 894 nM
- IC50 [3]: > 1000 nM

Compound: C[C@@H](N)c1ccc(-c2c(O)cc(Cl)c3[nH]c(=O)c4ccccc4c23)cc1
- IC50 [1]: 801 nM
- IC50 [2]: 600 nM
- IC50 [3]: > 1000 nM

Compound: Cc1cc(O)c(-c2ccc([C@@H](C)N(C)C)cc2)c2c1[nH]c(=O)c1c(C)cccc12
- IC50 [1]: 397 nM
- IC50 [2]: 470 nM
- IC50 [3]: 469 nM

Compound: Cc1cc(O)c(-c2ccc([C@@H](C)CN(C)C)cc2)c2c1[nH]c(=O)c1ccccc12
- IC50 [1]: 600 nM
- IC50 [2]: 264 nM
- IC50 [3]: 299 nM

Compound: Cc1cc(O)c(-c2ccc([C@@H](C)N(C)C)cc2)c2c1[nH]c(=O)c1ccccc12
- IC50 [2]: 250 nM
- IC50 [3]: 314 nM

Compound: Cc1cc(O)c(-c2ccc(C3(CN(C)C)CC3)cc2)c2c1[nH]c(=O)c1ccccc12
- IC50 [2]: > 1000 nM
- IC50 [3]: 950 nM

Compound: Cc1cc(O)c(-c2ccc(C3(CN)CC3)cc2)c2c1[nH]c(=O)c1ccccc12
- IC50 [1]: 398 nM
- IC50 [2]: 211 nM
- IC50 [3]: 231 nM

Compound: Cc1cc(O)c(-c2ccc([C@@H](C)CN(C)C)cc2)c2c1[nH]c(=O)c1c(C)cccc12
- IC50 [1]: 337 nM
- IC50 [2]: 287 nM
- IC50 [3]: 419 nM

Compound: Cc1cc(O)c(-c2ccc(C3(CN(C)C)CC3)cc2)c2c1[nH]c(=O)c1c(N(C)C)cccc12
- IC50 [2]: > 1000 nM
- IC50 [3]: > 1000 nM

Compound: Cc1cc(O)c(-c2ccc([C@@H](C)CN)cc2)c2c1[nH]c(=O)c1c(N(C)C)cccc12
- IC50 [2]: > 1000 nM
- IC50 [3]: > 1000 nM

Compound: Cc1cc(O)c(-c2ccc(C3(CN(C)C)CC3)cc2)c2c1[nH]c(=O)c1c(O)cccc12
- IC50 [2]: 406 nM
- IC50 [3]: 141 nM

Compound: CN(C)CC1(c2ccc(-c3c(O)cc(Cl)c4[nH]c(=O)c5c(O)cccc5c34)cc2)CC1
- IC50 [2]: 898 nM
- IC50 [3]: > 1000 nM

Compound: C[C@@H](CN(C)C)c1ccc(-c2c(O)cc(Cl)c3[nH]c(=O)c4ccccc4c23)cc1
- IC50 [1]: > 1000 nM
- IC50 [2]: > 1000 nM
- IC50 [3]: > 1000 nM

Compound: Cc1cc(O)c(-c2ccc([C@@H](C)CN)cc2)c2c1[nH]c(=O)c1c(F)cccc12
- IC50 [1]: > 1000 nM
- IC50 [2]: 110 nM
- IC50 [3]: 438 nM

Compound: C[C@@H](N)c1ccc(-c2c(O)cc(Cl)c3[nH]c(=O)c4c(O)cccc4c23)cc1
- IC50 [2]: 554 nM
- IC50 [3]: 720 nM

Compound: COc1cc(C)c2[nH]c(=O)c3ccccc3c2c1-c1ccc([C@@H](C)CN)cc1
- IC50 [1]: 278 nM
- IC50 [2]: 360 nM
- IC50 [3]: 357 nM

Compound: Cc1cc(O)c(-c2ccc([C@@H](C)CN)cc2)c2c1[nH]c(=O)c1sccc12
- IC50 [1]: 187 nM
- IC50 [2]: 19.5 nM
- IC50 [3]: 18.9 nM

Compound: Cc1cc(O)c(-c2ccc(C3(CN)CC3)cc2)c2c1[nH]c(=O)c1c(O)cccc12
- IC50 [2]: 136 nM
- IC50 [3]: 44.7 nM

Compound: Cc1cc(O)c(-c2ccc([C@@H](C)CN(C)C)cc2)c2c1[nH]c(=O)c1c(O)cccc12
- IC50 [1]: 76 nM
- IC50 [2]: 113 nM
- IC50 [3]: 215 nM

Compound: COc1cc(C)c2[nH]c(=O)c3ccccc3c2c1-c1ccc([C@@H](C)N)cc1
- IC50 [2]: > 1000 nM
- IC50 [3]: > 1000 nM

Compound: C[C@@H](CN(C)C)c1ccc(-c2c(O)cc(Cl)c3[nH]c(=O)c4c(O)cccc4c23)cc1
- IC50 [2]: 554 nM
- IC50 [3]: 534 nM

Compound: Cc1cc(O)c(-c2ccc([C@@H](C)N(C)C)cc2)c2c1[nH]c(=O)c1c(O)cccc12
- IC50 [1]: 162 nM
- IC50 [2]: 128 nM
- IC50 [3]: 396 nM

Compound: C[C@@H](CN)c1ccc(-c2c(O)cc(Cl)c3[nH]c(=O)c4ccccc4c23)cc1
- IC50 [1]: 309 nM
- IC50 [2]: > 1000 nM
- IC50 [3]: 636 nM

Compound: C[C@@H](CN)c1ccc(-c2c(O)cc(Cl)c3[nH]c(=O)c4c(O)cccc4c23)cc1
- IC50 [2]: 103 nM
- IC50 [3]: 372 nM

Compound: C[C@H](c1ccc(-c2c(O)cc(Cl)c3[nH]c(=O)c4c(O)cccc4c23)cc1)N(C)C
- IC50 [2]: 516 nM
- IC50 [3]: > 1000 nM
